Test results published in ChEMBL document CHEMBL4699634, “Series of Novel and Highly Potent Cyclic Peptide PCSK9 Inhibitors Derived from an mRNA Display Screen and Optimized via Structure-Based Design” (J Med Chem, 2020).
Numbered stars: 1 amine (or outer) side, 2 acyl side, 3 side chain; on linkers, the order of the positions; unused ones are H or OH. Bridge positions count the residues as written; N and C are the ends. Square brackets hold non-standard residues; d marks the D form. Peptide text beside a SMILES is read from it. Trp(5-F) = N[C@@H](Cc1c[nH]c2ccc(F)cc12)C(=O)O; X3 = O=C(CCSCc1cc(F)cc(CSCCN[*:1])c1)[*:2]; Lys(Me3) = C[N+](C)(C)CCCC[C@H](N)C(=O)O; X1 = O=C(CCSCc1cccc(CSCCN[*:1])c1)[*:2]; mXylylene = c1cc(C[*:1])cc(C[*:2])c1; αMeP = C[C@@]1(C(=O)O)CCCN1; Mpa = O=C(O)CCS

Assays:
Chymotrypsinogen A = Chymotrypsinogen A (Bos taurus, UniProt P00766); test: Enzymatic stability assessed as bovine pancreatic alpha-chymotrypsin-mediated compound hydrolysis by measuring parent compound remaining at 100 uM incubated for 1 hr by LC-MS/MS analysis; format: ADME; conditions: cattle, read-out: Stabilty
[1] = target: Chymotrypsin-like elastase family member 1 (Sus scrofa, UniProt P00772); test: Enzymatic stability assessed as porcine type 4 pancreatic elastase-mediated compound hydrolysis by measuring parent compound remaining at 100 uM incubated for 1 hr by LC-MS/MS analysis; format: ADME; conditions: pig, read-out: Stabilty
[2] = Enzymatic stability assessed as porcine pepsin-mediated compound hydrolysis by measuring parent compound remaining at 100 uM incubated for 1 hr by LC-MS/MS analysis; format: ADME, Sus scrofa; conditions: pig, read-out: Stabilty
[3] = Enzymatic stability assessed as bovine pancreatic trypsin-mediated compound hydrolysis by measuring parent compound remaining at 100 uM incubated for 1 hr by LC-MS/MS analysis; format: ADME, Bos taurus; conditions: cattle, read-out: Stabilty
[4] = Half life in C57BL/6 mouse whole blood at 100 uM by LC-MS/MS analysis; format: ADME, tissue-based
[5] = Half life in cynomolgus monkey whole blood at 100 uM by LC-MS/MS analysis; format: ADME, tissue-based, Macaca fascicularis
[6] = target: Proprotein convertase subtilisin/kexin type 9 (Homo sapiens, UniProt Q8NBP7); test: Inhibition of AlexaFluor647-tagged cyclic peptide binding to avi-tagged-biotinylated human PCSK9 measured after 2 hrs by Lance Streptavidin Europium based FRET assay
[7] = AUC (0 to infinity) in C57BL/6 mouse at 1 mg/kg, iv by LC-MS/MS analysis; format: ADME, organism-based; design: route intravenous, time infinity, dose 1 mg/kg; conditions: in vivo; for AUC(0-inf): C57BL/6, mouse
[8] = AUC (0 to X) in C57BL/6 mouse at 1 mg/kg, iv by LC-MS/MS analysis; format: ADME, organism-based; design: dose 1 mg/kg; conditions: in vivo
[9] = Clearance in C57BL/6 mouse at 1 mg/kg, iv by LC-MS/MS analysis; format: ADME, organism-based; conditions: in vivo
[10] = Volume of distribution at steady state in C57BL/6 mouse at 1 mg/kg, iv by LC-MS/MS analysis; format: ADME, organism-based; conditions: in vivo, read-out: Vdss
[11] = Half life in C57BL/6 mouse at 1 mg/kg, iv by LC-MS/MS analysis; format: ADME, organism-based; conditions: in vivo
[12] = Protein binding in mouse plasma at 2.5 uM measured after 4 hrs by equilibrium dialysis based LC-MS/MS analysis; format: ADME, cell-free; conditions: read-out: PPB (converted)
PCSK9/LDLR = PCSK9/LDLR (Homo sapiens, UniProt Q8NBP7); test: Inhibition of avi-tagged-biotinylated human PCSK9 interaction with His-tagged human LDLR EGFa domain by LANCE Ulight Streptavidin based TR-FRET assay; format: protein assay
[13] = Induction of mast cell degranulation in Wistar rat isolated peritoneal cells assessed as effect on histamine release measured after 30 mins; format: tissue-based
[14] = Cytotoxicity against Wistar rat isolated peritoneal cells assessed as reduction in cell viability up to 60 uM measured after 30 mins; format: cell-based; conditions: peritoneal macrophage cell, 0.5 h
[15] = AUC (0 to infinity) in Wistar Han rat at 1 mg/kg, iv by LC-MS/MS analysis; format: ADME, organism-based; design: route intravenous, time infinity, dose 1 mg/kg; conditions: Wistar Han, in vivo
[16] = AUC (0 to X) in Wistar Han rat at 1 mg/kg, iv by LC-MS/MS analysis; format: ADME, organism-based; design: dose 1 mg/kg; conditions: in vivo
[17] = Clearance in Wistar Han rat at 1 mg/kg, iv by LC-MS/MS analysis; format: ADME, organism-based; conditions: in vivo
[18] = Volume of distribution at steady state in Wistar Han rat at 1 mg/kg, iv by LC-MS/MS analysis; format: ADME, organism-based; conditions: in vivo, read-out: Vdss
[19] = Half life in Wistar Han rat at 1 mg/kg, iv by LC-MS/MS analysis; format: ADME, organism-based; conditions: in vivo
[20] = Protein binding in Wistar Han rat plasma; format: ADME, cell-free; conditions: read-out: PPB (converted)
[21] = Rattus norvegicus, Wistar, Mast cell, 0.5 h, read-out: EC50

Chain of Chymotrypsin-like elastase family member 1 (P00772 whole entry): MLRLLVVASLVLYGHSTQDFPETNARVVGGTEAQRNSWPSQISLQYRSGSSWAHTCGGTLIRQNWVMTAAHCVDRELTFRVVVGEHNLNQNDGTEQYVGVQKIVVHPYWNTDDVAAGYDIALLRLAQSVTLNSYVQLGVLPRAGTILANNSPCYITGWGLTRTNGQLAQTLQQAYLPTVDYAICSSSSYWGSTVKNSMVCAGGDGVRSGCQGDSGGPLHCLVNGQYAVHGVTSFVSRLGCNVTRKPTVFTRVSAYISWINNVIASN
Chain of Proprotein convertase subtilisin/kexin type 9 (Q8NBP7 31-152 limits assumed): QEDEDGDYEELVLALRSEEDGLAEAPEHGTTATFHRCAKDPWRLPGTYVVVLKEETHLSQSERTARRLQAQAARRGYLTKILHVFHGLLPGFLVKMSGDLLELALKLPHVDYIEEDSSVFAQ
Chain of Proprotein convertase subtilisin/kexin type 9 (Q8NBP7 153-692 limits assumed): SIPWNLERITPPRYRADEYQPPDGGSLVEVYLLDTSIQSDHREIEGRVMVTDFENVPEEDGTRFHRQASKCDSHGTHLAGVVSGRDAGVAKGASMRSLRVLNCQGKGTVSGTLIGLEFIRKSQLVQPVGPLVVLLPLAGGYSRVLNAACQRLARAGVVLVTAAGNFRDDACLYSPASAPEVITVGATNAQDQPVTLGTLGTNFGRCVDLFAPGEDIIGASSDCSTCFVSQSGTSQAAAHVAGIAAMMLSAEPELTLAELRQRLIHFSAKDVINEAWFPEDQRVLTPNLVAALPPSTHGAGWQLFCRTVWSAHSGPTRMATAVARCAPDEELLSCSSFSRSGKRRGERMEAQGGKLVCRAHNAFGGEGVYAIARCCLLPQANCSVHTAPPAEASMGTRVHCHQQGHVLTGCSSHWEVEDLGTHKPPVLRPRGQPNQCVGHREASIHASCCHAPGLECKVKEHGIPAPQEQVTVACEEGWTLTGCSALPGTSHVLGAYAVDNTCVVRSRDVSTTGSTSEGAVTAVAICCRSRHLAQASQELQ
Chain of PCSK9/LDLR (Q8NBP7 31-152 limits assumed): as the sequence (Q8NBP7 31-152 limits assumed) above
Chain of PCSK9/LDLR (Q8NBP7 153-692 limits assumed): as the sequence (Q8NBP7 153-692 limits assumed) above
Chain of PCSK9/LDLR (P01130 22-860 partner limits assumed): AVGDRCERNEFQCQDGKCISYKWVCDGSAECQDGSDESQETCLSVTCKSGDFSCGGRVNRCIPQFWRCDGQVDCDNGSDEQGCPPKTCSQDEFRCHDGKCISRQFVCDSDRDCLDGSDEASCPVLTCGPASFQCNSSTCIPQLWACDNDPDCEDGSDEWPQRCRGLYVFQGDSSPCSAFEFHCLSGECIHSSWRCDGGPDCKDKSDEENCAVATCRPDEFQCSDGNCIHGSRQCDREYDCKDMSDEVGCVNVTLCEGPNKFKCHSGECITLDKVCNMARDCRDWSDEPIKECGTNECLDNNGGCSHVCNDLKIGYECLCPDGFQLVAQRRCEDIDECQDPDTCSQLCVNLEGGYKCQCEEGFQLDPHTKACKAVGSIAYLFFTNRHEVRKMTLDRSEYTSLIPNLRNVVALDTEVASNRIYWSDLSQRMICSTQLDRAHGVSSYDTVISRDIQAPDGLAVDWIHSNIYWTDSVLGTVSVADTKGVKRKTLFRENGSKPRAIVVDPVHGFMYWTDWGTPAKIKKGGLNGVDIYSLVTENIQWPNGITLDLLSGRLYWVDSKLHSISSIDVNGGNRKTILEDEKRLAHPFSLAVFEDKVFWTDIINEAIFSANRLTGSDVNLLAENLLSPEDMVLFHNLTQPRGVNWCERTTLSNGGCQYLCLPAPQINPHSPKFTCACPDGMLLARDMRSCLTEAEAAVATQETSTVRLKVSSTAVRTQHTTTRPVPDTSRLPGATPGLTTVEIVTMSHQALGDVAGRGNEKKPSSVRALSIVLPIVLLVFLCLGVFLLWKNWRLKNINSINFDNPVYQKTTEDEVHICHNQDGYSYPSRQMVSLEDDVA

SMILES	remaining at 1 h, 100 µM (Chymotrypsinogen A) [%]	remaining at 1 h, 100 µM [1] [%]	remaining at 1 h, 100 µM [2] [%]	remaining at 1 h, 100 µM [3] [%]	half-life at 100 µM [4] [h]	half-life at 100 µM [5] [h]	Ki [6] [µM]	AUC(0-inf) [7] [nM·h]	AUC [8] [nM·h]	clearance [9] [L/h/kg]	Vd [10] [L/kg]	half-life [11] [h]	fraction unbound at 4 h, 2.5 µM [12]	Ki (PCSK9/LDLR) [µM]	EC50 [13, 21] [µM]	Activity [14]	further results
COc1ccc(C[C@@H]2NC(=O)[C@H]([C@@H](C)OC)NC(=O)[C@@H]3CCC(=O)NCc4cccc(c4)C[C@H](NC(=O)[C@@H](C)NC(=O)[C@H](C)NC(=O)CCSCc4cccc(c4)CSCCNC(=O)[C@]4(C)CCCN4C2=O)C(=O)N[C@@H](Cc2c[nH]c4ccc(F)cc24)C(=O)N3C)cc1	95.7	98.8	94.4	97.6	> 6	> 6	0.0106										
COc1ccc(C[C@@H]2NC(=O)[C@H]([C@@H](C)O)NC(=O)[C@@H]3CCC(=O)NCc4cccc(c4)C[C@H](NC(=O)[C@@H](C)NC(=O)[C@H](C)NC(=O)CCSCc4cccc(c4)CSCCNC(=O)[C@]4(C)CCCN4C2=O)C(=O)N[C@@H](Cc2c[nH]c4ccc(F)cc24)C(=O)N3)cc1	2.5	100	98.2	100	> 6	1.88	0.0015	841	840	0.96	0.23	0.66	0.015				
CC(C)[C@H]1NC(=O)[C@H](CCCCN)NC(=O)CCSCc2cccc(c2)CSCCNC(=O)[C@]2(C)CCCN2C(=O)[C@H](Cc2ccc(O)cc2)NC(=O)[C@H](Cc2cnc[nH]2)NC(=O)[C@H](CC(=O)O)NC(=O)[C@H](Cc2c[nH]c3ccc(F)cc23)NC(=O)[C@H](Cc2c[nH]c3ccc(F)cc23)NC1=O	76.4	100	100	94.3	> 6		0.0063	2510	2490	0.277	0.1	0.25	0.001	0.0176			
COc1ccc(C[C@@H]2NC(=O)[C@H](Cc3cnc[nH]3)NC(=O)[C@H](CC(=O)O)NC(=O)[C@H](Cc3c[nH]c4ccc(F)cc34)NC(=O)[C@H](Cc3c[nH]c4ccc(F)cc34)NC(=O)[C@@H](C)NC(=O)[C@H](CCCC[N+](C)(C)C)NC(=O)CCSCc3cccc(c3)CSCCNC(=O)[C@]3(C)CCCN3C2=O)cc1 (cyclo(DHY(Me)[αMeP][X1][Lys(Me3)][dA][Trp(5-F)][Trp(5-F)]))	24.2	68.2	87.5	98.4	> 6		0.0095	933	896	0.372	0.45	1.16	0.007			Non-Toxic	EC50 ([13]; mast cell): Non-Toxic; AUC(0-inf) [15]: 3650 nM·h; AUC [16]: 3650 nM·h; clearance [17]: 0.19 L/h/kg; Vd [18]: 0.17 L/kg; half-life [19]: 2.46 h; fraction unbound [20]: 0.001
C[C@H]1NC(=O)[C@H](CCCCN)NC(=O)CCSCc2cc(F)cc(c2)CSCCNC(=O)[C@]2(C)CCCN2C(=O)[C@H](Cc2ccc(O)cc2)NC(=O)[C@H](Cc2cnc[nH]2)NC(=O)[C@H](CC(=O)O)NC(=O)[C@H](Cc2c[nH]c3ccc(F)cc23)NC(=O)[C@H](Cc2c[nH]c3ccc(F)cc23)NC1=O (cyclo(DHY[αMeP][X3]K[dA][Trp(5-F)][Trp(5-F)]))	20.1	96.5	96.6	91	> 6	> 6	0.0015										
C[C@H]1NC(=O)[C@H](CCCCN)NC(=O)CCSCc2cccc(c2)CSCCNC(=O)[C@]2(C)CCCN2C(=O)[C@H](Cc2ccc(O)cc2)NC(=O)[C@H](Cc2cnc[nH]2)NC(=O)[C@H](CC(=O)O)NC(=O)[C@H](Cc2c[nH]c3ccc(F)cc23)NC(=O)[C@H](Cc2c[nH]c3ccc(F)cc23)NC1=O	42.7	99.1	93.7	79.5	3.1	> 6	0.0042	492	491	1.45	0.29	0.78	0.0077	0.0233			

Second part, led by results:

remaining at 1 h, 100 µM (Chymotrypsinogen A) [%]	remaining at 1 h, 100 µM [1] [%]	remaining at 1 h, 100 µM [2] [%]	remaining at 1 h, 100 µM [3] [%]	half-life at 100 µM [4] [h]	half-life at 100 µM [5] [h]	Ki [6] [µM]	AUC(0-inf) [7] [nM·h]	AUC [8] [nM·h]	clearance [9] [L/h/kg]	Vd [10] [L/kg]	half-life [11] [h]	fraction unbound at 4 h, 2.5 µM [12]	Ki (PCSK9/LDLR) [µM]	EC50 [13, 21] [µM]	SMILES	Activity [14]	further results
91	56	99.5	1.2	1.03	3.1	0.0101									CO[C@H](C)[C@@H]1NC(=O)[C@@H]2CCCN2C(=O)[C@H](Cc2c[nH]c3ccc(F)cc23)NC(=O)[C@H](Cc2c[nH]c3ccc(F)cc23)NC(=O)CNC(=O)[C@H](CCCCN)NC(=O)CCSCc2cccc(c2)CSC[C@@H](C(N)=O)NC(=O)[C@]2(C)CCCN2C(=O)[C@H](Cc2ccc(O)cc2)NC1=O ([Mpa]KG[Trp(5-F)][Trp(5-F)]PT(Me)Y[αMeP]C-NH2; linker 1-10 via mXylylene)		
10.9	52.7	94	0.9	5.19	> 6	0.004	181	185	3.92	1.2	0.33	0.0515	0.014	6.67	C[C@@]12CCCN1C(=O)[C@H](Cc1ccc(O)cc1)NC(=O)[C@H](Cc1cnc[nH]1)NC(=O)[C@H](CC(=O)O)NC(=O)[C@H](Cc1c[nH]c3ccc(F)cc13)NC(=O)[C@H](Cc1c[nH]c3ccc(F)cc13)NC(=O)CNC(=O)[C@H](CCCCN)NC(=O)CCSCc1cccc(c1)CSC[C@@H](C(N)=O)NC2=O ([Mpa]KG[Trp(5-F)][Trp(5-F)]DHY[αMeP]C-NH2; linker 1-10 via mXylylene)	Non-Toxic	
100	100	98.1	95.9	> 6		0.0021		171		0.37	1.6	0.0167		3.12	C[C@H]1NC(=O)[C@H](CCCCN)NC(=O)CCSCc2cccc(c2)CSC[C@@H](C(N)=O)NC(=O)[C@]2(C)CCCN2C(=O)[C@H](Cc2ccc(O)cc2)NC(=O)[C@H]([C@@H](C)O)NC(=O)[C@@H]2C[C@H](F)CN2C(=O)[C@H](Cc2c[nH]c3ccc(F)cc23)NC(=O)[C@H](Cc2c[nH]c3ccc(F)cc23)NC1=O	Non-Toxic	AUC ([7]; mouse): 171.52 nM·h
12	60.7	95	1.2	1.05			242	241	3.1	0.7	1.04	0.0498	0.11	6.67	NCCCC[C@@H]1NC(=O)CCSCc2cccc(c2)CSC[C@@H](C(N)=O)NC(=O)[C@@H]2CCCN2C(=O)[C@H](Cc2ccc(O)cc2)NC(=O)[C@H](Cc2c[nH]cn2)NC(=O)[C@H](CC(=O)O)NC(=O)[C@H](Cc2c[nH]c3ccc(F)cc23)NC(=O)[C@H](Cc2c[nH]c3ccc(F)cc23)NC(=O)CNC1=O	Non-Toxic	
